Test results published in ChEMBL document CHEMBL5365438, “2-Substituted 1,5-benzothiazepine-based HDAC inhibitors exert anticancer activities on human solid and acute myeloid leukemia cell lines” (Bioorg Med Chem, 2023).
Active and inactive are the calls of the source. The calls are words filed in the database; no cut-off is given here.

Experiments:
HCT-116 [1] = experiment: Cytotoxicity against human HCT-116 cells assessed as reduction in cell death at 1 uM incubated for 24 hrs by PI staining based FACS analysis; type: functional
Histone deacetylase = type: subcellular, Homo sapiens, Nucleus; conditions: hela
Description: Inhibition of HDAC in human HeLa cell nuclear extract using Kac fluorogenic peptide as substrate containing residues 379-382 of p53 by fluorescence assay

U-937 [2] = experiment: Cytotoxicity against human U-937 cells assessed as cell death at 1 to 5 uM incubated for 24 hrs by PI staining based FACS analysis relative to control; type: functional; conditions: dose 1-5 µM
HCT-116 [3] = experiment: Cytotoxicity against human HCT-116 cells assessed as cell death at 5 uM incubated for 24 hrs by PI staining based FACS analysis relative to control; type: functional
U-937 [4] = experiment: Induction of cell cycle arrest in human U-937 assessed as reduced accumulation of cells in S phase at 1 uM incubated for 24 hrs by FACS analysis; type: functional, cell-based
U-937 [5] = experiment: Induction of cell cycle arrest in human U-937 assessed as increase accumulation of cells in G2/M phase at 1 to 5 uM incubated for 24 hrs by FACS analysis; type: functional, cell-based; conditions: dose 1-5 µM
U-937 [6] = experiment: Induction of cell cycle arrest in human U-937 assessed as decrease accumulation of cells in G1 phase at 5 uM incubated for 24 hrs by FACS analysis; type: functional, cell-based
HCT-116 [7] = experiment: Induction of cell cycle arrest in human HCT-116 assessed as accumulation of cells in G2/M phase at 1 to 5 uM incubated for 24 hrs by FACS analysis relative to SAHA; type: functional; conditions: dose 1-5 µM
[8] = biological target: T1, Histone deacetylase (Homo sapiens) (UniProt Q13547+O15379+Q9UBN7+Q92769+Q9UQL6+Q8WUI4+Q9BY41+Q96DB2+P56524+Q9UKV0+Q969S8); experiment: Inhibition of HDAC in human U-937 cells assessed as upregulation of acetyl alpha-tubulin level at 5 uM incubated for 24 hrs by immunoblotting analysis; type: cell-based
[9] = biological target: T1, Histone deacetylase (Homo sapiens); experiment: Inhibition of HDAC in human HCT-116 cells assessed as upregulation of acetyl alpha-tubulin level at 1 to 5 uM incubated for 24 hrs by immunoblotting analysis; type: cell-based; conditions: dose 1-5 µM
HCT-116 [10] = experiment: Induction of apoptosis in human HCT-116 cells assessed as increased p21 protein expression level at 1 to 5 uM incubated for 24 hrs by immunoblotting analysis; type: functional, cell-based; conditions: dose 1-5 µM
U-937 [11] = experiment: Induction of apoptosis in human U-937 cells assessed as increased p21 protein expression level at 1 to 5 uM incubated for 24 hrs by immunoblotting analysis; type: functional, cell-based; conditions: dose 1-5 µM
[12] = biological target: T1, Histone deacetylase (Homo sapiens); experiment: Inhibition of HDAC in human U-937 cells assessed as upregulation of histone H3 acetylation at lysine 14 residue at 5 uM incubated for 24 hrs by immunoblotting analysis; type: cell-based
[13] = biological target: T1, Histone deacetylase (Homo sapiens); experiment: Inhibition of HDAC in human U-937 cells assessed as upregulation of histone H3 acetylation at lysine 14 residue at 1 uM incubated for 24 hrs by immunoblotting analysis; type: cell-based

Compound	Activity (HCT-116 [1])	IC50 (Histone deacetylase)	Activity (U-937 [2])	Activity (HCT-116 [3])	Activity (U-937 [4])	Activity (U-937 [5])	Activity (U-937 [6])	Activity (HCT-116 [7])	Activity [8]	Activity [9]	Activity (HCT-116 [10])	Activity (U-937 [11])	Activity [12]	Activity [13]
O=C(CCCCCN1C(=O)C[C@H](c2ccc(Cl)c(Cl)c2)Sc2ccccc21)NO	Active	274.4 nM	Active	22%	Active	Active	Active	Active	Active	Active	Active	Active	–	–
Cc1ccc(C2CC(=O)N(CCCCCC(=O)NO)c3ccccc3S2)cc1 (racemic)	Active	123.4 nM	Active	22%	Active	Active	Active	Active	Active	Active	Active	Active	Active	–
O=C(CCCCCN1C(=O)CC(c2c3ccccc3cc3ccccc23)Sc2ccccc21)NO (racemic)	Active	246 nM	Active	22%	Active	Active	Active	Active	Active	Active	Active	Active	Active	–
O=C(CCCCCN1C(=O)CC(c2ccccc2Cl)Sc2ccccc21)NO (racemic)	Active	109.4 nM	Active	22%	Active	Active	Active	Active	Active	Active	Active	Active	Active	–
O=C(CCCCCN1C(=O)CC(c2cccc3ccccc23)Sc2ccccc21)NO (racemic)	Active	259.3 nM	Active	22%	Active	Active	Active	Active	Active	Active	Active	Active	Active	Active
COc1ccc(C2CC(=O)N(CCCCCC(=O)NO)c3ccccc3S2)cc1 (racemic)	Active	118.3 nM	Active	22%	Active	Active	Active	~75%	Active	Active	Active	Active	Active	–
